Data on four substances can be found in patent US12268724B2, “Methods and compositions for the prevention or treatment of Barth Syndrome” (Stealth BioTherapeutics Inc., priority 2013, dated 2025).

In data set [1] the target is mu-opioid receptor (Homo sapiens, UniProt P35372). As to the kind of experiment: Mu-opioid receptor agonist activity. The settings on record: stated in description, no test described.
Data set [2] relates to plasma membrane of several mammalian cell types. The note with it: cited from earlier work.
Data set [3] has as its system TAZ1. As to the kind of experiment: TAZ1 mRNA expression in a dog model of heart failure (real-time PCR of LV tissue). The settings on record: dogs with microembolization-induced heart failure, 0.5 mg/kg once daily subcutaneous, three months, saline control 2.25-fold. Type of data set: in vivo. As for the experimental part: Twelve dogs were subject to coronary microembolization-induced heart failure (LV ejection fraction ˜30%) as described above in Example 1. Subjects were randomized into D-Arg-2′6′-Dmt-Lys-Phe-NH2-treated and control groups for a three-month trial. Subjects received subcutaneous injections of D-Arg-2′6′-Dmt-Lys-Phe-NH2 (0.5 mg/kg once daily, n=6) or saline (Untreated-HF Control, n=6). RNA was prepared from LV tissue of all subjects at the end of the treatment phase and from the LV of six normal subject controls. Levels of TAZ1 mRNA were determined by real-time PCR. Changes in mRNA levels were expressed as fold reduction using the CT Method, with normalization to a […] (GAPDH) internal control.
A general note: Real-time PCR tracks product formation cycle by cycle.

Data set [4] relates to mitochondria. The experiment in a line: Electron microscopy of mitochondrial ultrastructure and organization in tissue from cardiac disease subject. The format is in vivo. The method, then:
A tissue sample from a subject with Barth Syndrome and tissue samples from a subject with cardiac disease was prepared for electron microscopy imaging of the mitochondria using standards known in the art. […] FIG. 3.

Where no end group is shown, it is not given here. [ ]: non-standard residue; d: D form.

mu-opioid receptor, sequence (P35372 whole entry, species assumed): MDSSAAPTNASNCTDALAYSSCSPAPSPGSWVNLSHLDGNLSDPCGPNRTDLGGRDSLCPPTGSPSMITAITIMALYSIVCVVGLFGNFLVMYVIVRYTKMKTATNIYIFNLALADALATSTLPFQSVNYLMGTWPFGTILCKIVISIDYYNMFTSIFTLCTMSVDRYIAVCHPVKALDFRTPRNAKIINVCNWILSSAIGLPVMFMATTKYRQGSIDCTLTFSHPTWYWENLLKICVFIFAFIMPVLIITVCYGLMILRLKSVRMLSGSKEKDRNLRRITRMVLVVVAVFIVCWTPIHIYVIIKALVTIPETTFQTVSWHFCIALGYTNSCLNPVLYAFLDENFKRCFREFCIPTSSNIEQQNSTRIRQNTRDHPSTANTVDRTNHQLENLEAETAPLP

Consider F[dR]FK-NH2, for which the “mu-opioid receptor agonist activity” value in data set [1] is “does not have mu-opioid receptor agonist activity”.

Turning to 2′, 6′-Dmt-D-Arg-Phe-Lys-NH2, the “penetration of the plasma membrane” value in data set [2] is reported as “readily penetrates the plasma membrane of several mammalian cell types in an energy-independent manner”.

Tyr-D-Arg-Phe-Lys-NH2: the “mu-opioid receptor agonist activity” value in data set [1] is “has mu-opioid receptor agonist activity”.

D-Arg-2′6′-Dmt-Lys-Phe-NH2: the “decrease in TAZ1 mRNA relative to normal subjects (fold reduction, CT Method, normalized to GAPDH)” value in data set [3] is given as 1.23 fold. Also, the “ultrastructure of the mitochondria (electron microscopy)” value in data set [4] (cardiac disease subject treated with an effective amount, FIG. 4A vs 4B) was “ameliorated the abnormal features of the ultrastructure of the mitochondria”. The “organization of the mitochondria (electron microscopy)” value in data set [4] (tissue from treated vs not treated cardiac disease subject, FIGS. 5A-5B) is recorded as “improved organization of the mitochondria”. Moreover, the “mu-opioid receptor agonist activity” value in data set [1] is reported as “does not have mu-opioid receptor agonist activity”.
